Measurements taken from patent publication US11072608B2, “Pesticidally active heterocyclic derivatives with sulphur containing substituents” (SYNGENTA PARTICIPATIONS AG, priority 2014, dated 2021).

Experiments:
Assay type in all cases: in vivo
[1] = tested on: Spodoptera littoralis (Egyptian cotton leaf worm); assay: Example B1: activity against Spodoptera littoralis, cotton leaf disc spray; details: foliar, 72 h, application rate of 200 ppm, cotton leaf discs, L1 larvae, 3 days after infestation, read-out: control in at least one of the three categories (mortality, anti-feedancy or growth inhibition)
Procedure: Example B1: Activity Against Spodoptera littoralis (Egyptian Cotton Leaf Worm)
Cotton leaf discs were placed on agar in 24-well microtiter plates and sprayed with aqueous test solutions prepared from 10,000 ppm DMSO stock solutions. After drying the leaf discs were infested with five L1 larvae. The samples were assessed for mortality, anti-feedant effect, and growth inhibition in comparison to untreated samples 3 days after infestation. Control of Spodoptera littoralis by a test sample is when at least one of mortality, anti-feedant effect, and growth inhibition is higher than the untreated sample. The following compound gave an effect of at least 80% control in at least one of the three categories (mortality, anti-feedancy or growth inhibition) at an application rate of 200 ppm: P1, P4, P5, P8, P9, P10, P12 and P13.

[2] = tested on: Spodoptera littoralis (Egyptian cotton leaf worm); assay: Example B2: activity against Spodoptera littoralis, systemic via lettuce on agar; details: 144 h, application rate of 12.5 ppm, Spodoptera eggs, 6 days after infestation, read-out: control in at least one of the three categories (mortality, anti-feedancy or growth inhibition)
From the text: Example B2: Activity Against Spodoptera Littoralis (Egyptian Cotton Leaf Worm)
Test compounds were applied by pipette from 10,000 ppm DMSO stock solutions into 24-well plates and mixed with agar. Lettuce seeds were placed on the agar and the multi well plate was closed by another plate which contains also agar. After 7 days the roots have absorbed the compound and the lettuce has grown into the lid plate. The lettuce leafs were now cut off into the lid plate. Spodoptera eggs were pipetted through a plastic stencil on a humid gel blotting paper and the plate closed with it. The samples were assessed for mortality, anti-feedant effect and growth inhibition in comparison to untreated samples 6 days after infestation. The following compound gave an effect of at least 80% control in at least one of the three categories (mortality, anti-feedancy or growth inhibition) at an application rate of 12.5 ppm: P1, P4, P9, P12 and P13.

[3] = tested on: Plutella xylostella (diamond back moth); assay: Example B3: activity against Plutella xylostella, artificial diet; details: 120 h, application rate of 200 ppm, L2 larvae, 5 days after infestation, read-out: effect in at least one of the two categories (mortality or growth inhibition)
Procedure: Example B3: Activity Against Plutella xylostella (Diamond Back Moth)
24-well microtiter plates with artificial diet were treated with aqueous test solutions prepared from 10,000 ppm DMSO stock solutions by pipetting. After drying, the plates were infested with L2 larvae (10 to 15 per well). The samples were assessed for mortality and growth inhibition in comparison to untreated samples 5 days after infestation. The following compound gave an effect of at least 80% in at least one of the two categories (mortality or growth inhibition) at an application rate of 200 ppm: P1, P4, P5, P6, P8, P9, P10, P11, P12 and P13.

[4] = tested on: Diabrotica balteata (corn root worm); assay: Example B4: activity against Diabrotica balteata, maize sprouts spray; details: 96 h, application rate of 200 ppm, L2 larvae, 4 days after infestation, read-out: effect in at least one of the two categories (mortality or growth inhibition)
Procedure: Example B4: Activity Against Diabrotica balteata (Corn Root Worm)
Maize sprouts, placed on an agar layer in 24-well microtiter plates were treated with aqueous test solutions prepared from 10,000 ppm DMSO stock solutions by spraying. After drying, the plates were infested with L2 larvae (6 to 10 per well). The samples were assessed for mortality and growth inhibition in comparison to untreated samples 4 days after infestation. The following compounds gave an effect of at least 80% in at least one of the two categories (mortality or growth inhibition) at an application rate of 200 ppm: P1, P4, P5, P6, P8, P9, P10, P11, P12 and P13.

[5] = tested on: Myzus persicae (green peach aphid); assay: Example B5: activity against Myzus persicae, sunflower leaf disc spray; details: foliar, 144 h, application rate of 200 ppm, sunflower leaf discs, mixed ages, 6 days after infestation
Procedure: Example B5: Activity Against Myzus persicae (Green Peach Aphid)
Sunflower leaf discs were placed on agar in a 24-well microtiter plate and sprayed with aqueous test solutions prepared from 10,000 ppm DMSO stock solutions. After drying, the leaf discs were infested with an aphid population of mixed ages. The samples were assessed for mortality 6 days after infestation.

[6] = tested on: Myzus persicae (green peach aphid); assay: Example B6: activity against Myzus persicae, sucrose solution through Parafilm; details: 120 h, test rate of 12 ppm, 5 days after infestation
From the text: Example B6: Activity Against Myzus persicae (Green Peach Aphid)
Test compounds from 10,000 ppm DMSO stock solutions were applied by pipette into 24-well microtiter plates and mixed with sucrose solution. The plates were closed with a stretched Parafilm. A plastic stencil with 24 holes was placed onto the plate and infested pea seedlings were placed directly on the Parafilm. The infested plate was closed with a gel blotting paper and another plastic stencil and then turned upside down. The samples were assessed for mortality 5 days after infestation.

[7] = tested on: Euschistus heros (neotropical brown stink bug); assay: Example B8: activity against Euschistus heros, soybean leaf spray; details: 120 h, application rate of 200 ppm, N-2 nymphs, 5 days after infestation
Procedure: Example B8: Activity Against Euschistus heros (Neotropical Brown Stink Bug)
Soybean leaf on agar in 24-well microtiter plates were sprayed with aqueous test solutions prepared from 10,000 ppm DMSO stock solutions. After drying the leaf were infested with N-2 nymphs. The samples were assessed for mortality 5 days after infestation.

CCSc1cc(C2CC2)cnc1-c1nc2cc(C(F)(F)F)cnc2n1C [Compound P1, 2-(5-cyclopropyl-3-ethylsulfanyl-2-pyridyl)-3-methyl-6-(trifluoromethyl)imidazo[4,5-b]pyridine]
≥ 80%: percent control (mortality, anti-feedancy or growth inhibition) at 200 ppm [1] | control at 12.5 ppm [2] | percent effect (mortality or growth inhibition) at 200 ppm [3] | percent effect (mortality or growth inhibition) at 200 ppm [4] | mortality at 200 ppm [5] | mortality at 12 ppm [6] | mortality at 200 ppm [7]
